Each block holds one substance with its values, some of them ahead of it. Where no end group is shown, it is not given here. [ ]: non-standard residue; d: D form. Arg(Me2a) = CN(C)C(=N)NCCC[C@H](N)C(=O)O; pS = N[C@@H](COP(=O)(O)O)C(=O)O
How the values were obtained:
Assay in all cases: Histone peptide microarray
Format in all cases: binding, human
AIRE (PP) = conditions: arrays performed twice; for Array Heatmap value (peptide array binding signal): AIRE (PP), GST-tagged, n of 4
Method in brief: (§1)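 Binding of recombinant GST-fused PHD readers (0.5 μM) is detected on an array of 293 histone peptides, modified singly or in combination. An optimized array protocol is followed, and each intensity is the average of quadruplicate measurements with standard deviation.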

BAZ2B = conditions: arrays performed twice; for Array Heatmap value (peptide array binding signal): BAZ2B, GST-tagged, n of 4
Method in brief: as §1

BPTF (PB) = conditions: arrays performed twice; for Array Heatmap value (peptide array binding signal): BPTF (PB), GST-tagged, n of 4
Method in brief: as §1

CHD4 (PPCC) = conditions: arrays performed twice; for Array Heatmap value (peptide array binding signal): CHD4 (PPCC), GST-tagged, n of 4
Method in brief: as §1

CHD5 (PCC) = conditions: arrays performed twice; for Array Heatmap value (peptide array binding signal): CHD5 (PCC), GST-tagged, n of 4
Method in brief: as §1

CHD5 (PPCC) = conditions: arrays performed twice; for Array Heatmap value (peptide array binding signal): CHD5 (PPCC), GST-tagged, n of 4
Method in brief: as §1

DIDO1 = conditions: arrays performed twice; for Array Heatmap value (peptide array binding signal): DIDO1, GST-tagged, n of 4
Method in brief: as §1

DPF2 (PPC2W2) = conditions: arrays performed twice; for Array Heatmap value (peptide array binding signal): DPF2 (PPC2W2), GST-tagged, n of 4
Method in brief: as §1

ING1 = conditions: arrays performed twice; for Array Heatmap value (peptide array binding signal): ING1, GST-tagged, n of 4
Method in brief: as §1

ING2 = conditions: arrays performed twice; for Array Heatmap value (peptide array binding signal): ING2, GST-tagged, n of 4
Method in brief: as §1

ING3 = conditions: arrays performed twice; for Array Heatmap value (peptide array binding signal): ING3, GST-tagged, n of 4
Method in brief: as §1

ING4 = conditions: arrays performed twice; for Array Heatmap value (peptide array binding signal): ING4, GST-tagged, n of 4
Method in brief: as §1

ING5 = conditions: arrays performed twice; for Array Heatmap value (peptide array binding signal): ING5, GST-tagged, n of 4
Method in brief: as §1

KDM4C (TTP) = conditions: arrays performed twice; for Array Heatmap value (peptide array binding signal): KDM4C (TTP), GST-tagged, n of 4
Method in brief: as §1

KDM5A (1) = conditions: arrays performed twice; for Array Heatmap value (peptide array binding signal): KDM5A (1), GST-tagged, n of 4
Method in brief: as §1

KDM5A (3) = conditions: arrays performed twice; for Array Heatmap value (peptide array binding signal): KDM5A (3), GST-tagged, n of 4
Method in brief: as §1

KDM5B (1) = conditions: arrays performed twice; for Array Heatmap value (peptide array binding signal): KDM5B (1), GST-tagged, n of 4
Method in brief: as §1

KDM5B (3) = conditions: arrays performed twice; for Array Heatmap value (peptide array binding signal): KDM5B (3), GST-tagged, n of 4
Method in brief: as §1

KDM7A = conditions: arrays performed twice; for Array Heatmap value (peptide array binding signal): KDM7A, GST-tagged, n of 4
Method in brief: as §1

MLL5 = conditions: arrays performed twice; for Array Heatmap value (peptide array binding signal): MLL5, GST-tagged, n of 4
Method in brief: as §1

MORC3 (CW) = conditions: arrays performed twice; for Array Heatmap value (peptide array binding signal): MORC3 (CW), GST-tagged, n of 4
Method in brief: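 Each reader, produced as a GST fusion and purified, was tested at 0.5 μM on synthetic histone peptides (293 in total) carrying single or combinatorial marks. Intensities averaged over four replicates.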

PHF13 = conditions: arrays performed twice; for Array Heatmap value (peptide array binding signal): PHF13, GST-tagged, n of 4
Method in brief: as §1

PHF21A = conditions: arrays performed twice; for Array Heatmap value (peptide array binding signal): PHF21A, GST-tagged, n of 4
Method in brief: as §1

PHF23 = conditions: arrays performed twice; for Array Heatmap value (peptide array binding signal): PHF23, GST-tagged, n of 4
Method in brief: as §1

PHF2 = conditions: arrays performed twice; for Array Heatmap value (peptide array binding signal): PHF2, GST-tagged, n of 4
Method in brief: as §1

PHF8 = conditions: arrays performed twice; for Array Heatmap value (peptide array binding signal): PHF8, GST-tagged, n of 4
Method in brief: as §1

PHRF1 (RP) = conditions: arrays performed twice; for Array Heatmap value (peptide array binding signal): PHRF1 (RP), GST-tagged, n of 4
Method in brief: as §1

RAG2 = conditions: arrays performed twice; for Array Heatmap value (peptide array binding signal): RAG2, GST-tagged, n of 4
Method in brief: as §1

SP140L = conditions: arrays performed twice; for Array Heatmap value (peptide array binding signal): SP140L, GST-tagged, n of 4
Method in brief: as §1

TAF3 = conditions: arrays performed twice; for Array Heatmap value (peptide array binding signal): TAF3, GST-tagged, n of 4
Method in brief: as §1

TRIM66 (PB) = conditions: arrays performed twice; for Array Heatmap value (peptide array binding signal): TRIM66 (PB), GST-tagged, n of 4
Method in brief: as §1

Array Heatmap value (peptide array binding signal) (AIRE (PP)): 0.4061
Array Heatmap value (peptide array binding signal) (BAZ2B): 0.4585
Array Heatmap value (peptide array binding signal) (BPTF (PB)): 0.3416
Array Heatmap value (peptide array binding signal) (CHD4 (PPCC)): 0.5411
Array Heatmap value (peptide array binding signal) (CHD5 (PCC)): 0.7634
Array Heatmap value (peptide array binding signal) (CHD5 (PPCC)): 0.5209
Array Heatmap value (peptide array binding signal) (DIDO1): 0.6572
Array Heatmap value (peptide array binding signal) (DPF2 (PPC2W2)): 0.6169
Array Heatmap value (peptide array binding signal) (ING1): 0.502
Array Heatmap value (peptide array binding signal) (ING2): 0.5954
Array Heatmap value (peptide array binding signal) (ING3): 0.4528
Array Heatmap value (peptide array binding signal) (ING4): 0.4409
Array Heatmap value (peptide array binding signal) (ING5): 0.3401
Array Heatmap value (peptide array binding signal) (KDM4C (TTP)): 0.4418
Array Heatmap value (peptide array binding signal) (KDM5A (1)): 0.4472
Array Heatmap value (peptide array binding signal) (KDM5A (3)): 0.4055
Array Heatmap value (peptide array binding signal) (KDM5B (1)): 0.6265
Array Heatmap value (peptide array binding signal) (KDM5B (3)): 0.4618
Array Heatmap value (peptide array binding signal) (KDM7A): 0.3242
Array Heatmap value (peptide array binding signal) (MLL5): 0.5527
Array Heatmap value (peptide array binding signal) (MORC3 (CW)): 0.3531
Array Heatmap value (peptide array binding signal) (PHF13): 0.6011
Array Heatmap value (peptide array binding signal) (PHF21A): 0.4417
Array Heatmap value (peptide array binding signal) (PHF23): 0.5294
Array Heatmap value (peptide array binding signal) (PHF2): 0.5234
Array Heatmap value (peptide array binding signal) (PHF8): 0.3477
Array Heatmap value (peptide array binding signal) (PHRF1 (RP)): 0.4082
Array Heatmap value (peptide array binding signal) (RAG2): 0.2374
Array Heatmap value (peptide array binding signal) (SP140L): 0.3352
Array Heatmap value (peptide array binding signal) (TAF3): 0.2475
Array Heatmap value (peptide array binding signal) (TRIM66 (PB)): 0.6358
Substance: H2AR3me2a + K5ac: H2A 1-17 (SG[Arg(Me2a)]GK(Ac)QGGKARAKAKTR; UniProt P0C0S8 2-18, looked up, fragment)

Array Heatmap value (peptide array binding signal) (AIRE (PP)): 0.4865
Array Heatmap value (peptide array binding signal) (BAZ2B): 0.5108
Array Heatmap value (peptide array binding signal) (BPTF (PB)): 0.3885
Array Heatmap value (peptide array binding signal) (CHD4 (PPCC)): 0.5877
Array Heatmap value (peptide array binding signal) (CHD5 (PCC)): 0.8457
Array Heatmap value (peptide array binding signal) (CHD5 (PPCC)): 0.6207
Array Heatmap value (peptide array binding signal) (DIDO1): 0.7538
Array Heatmap value (peptide array binding signal) (DPF2 (PPC2W2)): 0.758
Array Heatmap value (peptide array binding signal) (ING1): 0.5672
Array Heatmap value (peptide array binding signal) (ING2): 0.6108
Array Heatmap value (peptide array binding signal) (ING3): 0.5376
Array Heatmap value (peptide array binding signal) (ING4): 0.4949
Array Heatmap value (peptide array binding signal) (ING5): 0.4136
Array Heatmap value (peptide array binding signal) (KDM4C (TTP)): 0.5547
Array Heatmap value (peptide array binding signal) (KDM5A (1)): 0.5224
Array Heatmap value (peptide array binding signal) (KDM5A (3)): 0.5245
Array Heatmap value (peptide array binding signal) (KDM5B (1)): 0.7084
Array Heatmap value (peptide array binding signal) (KDM5B (3)): 0.5099
Array Heatmap value (peptide array binding signal) (KDM7A): 0.4163
Array Heatmap value (peptide array binding signal) (MLL5): 0.5765
Array Heatmap value (peptide array binding signal) (MORC3 (CW)): 0.4152
Array Heatmap value (peptide array binding signal) (PHF13): 0.6406
Array Heatmap value (peptide array binding signal) (PHF21A): 0.4866
Array Heatmap value (peptide array binding signal) (PHF23): 0.5991
Array Heatmap value (peptide array binding signal) (PHF2): 0.5212
Array Heatmap value (peptide array binding signal) (PHF8): 0.3894
Array Heatmap value (peptide array binding signal) (PHRF1 (RP)): 0.5154
Array Heatmap value (peptide array binding signal) (RAG2): 0.2825
Array Heatmap value (peptide array binding signal) (SP140L): 0.3795
Array Heatmap value (peptide array binding signal) (TAF3): 0.2891
Array Heatmap value (peptide array binding signal) (TRIM66 (PB)): 0.6131
Substance: H2AS1p + R3me2a + K5ac: H2A 1-17 ([pS]G[Arg(Me2a)]GK(Ac)QGGKARAKAKTR; UniProt P0C0S8 2-18, looked up, fragment)

Substance: H3 (52-61): H3 52-61 (RRYQKSTELL; UniProt P68431 53-62, looked up, fragment)
Array Heatmap signal, AIRE (PP) (AIRE (PP); sheet "Array Heatmap", GST-tagged AIRE (PP), total replicate number n = 4): 0.514
Array Heatmap signal, BAZ2B (BAZ2B; sheet "Array Heatmap", GST-tagged BAZ2B, total replicate number n = 4): 0.5444
Array Heatmap signal, BPTF (PB) (BPTF (PB); sheet "Array Heatmap", GST-tagged BPTF (PB), total replicate number n = 4): 0.412
Array Heatmap signal, CHD4 (PPCC) (CHD4 (PPCC); sheet "Array Heatmap", GST-tagged CHD4 (PPCC), total replicate number n = 4): 0.678
Array Heatmap signal, CHD5 (PCC) (CHD5 (PCC); sheet "Array Heatmap", GST-tagged CHD5 (PCC), total replicate number n = 4): 0.8381
Array Heatmap signal, CHD5 (PPCC) (CHD5 (PPCC); sheet "Array Heatmap", GST-tagged CHD5 (PPCC), total replicate number n = 4): 0.6595
Array Heatmap signal, DIDO1 (DIDO1; sheet "Array Heatmap", GST-tagged DIDO1, total replicate number n = 4): 0.9
Array Heatmap signal, DPF2 (PPC2W2) (DPF2 (PPC2W2); sheet "Array Heatmap", GST-tagged DPF2 (PPC2W2), total replicate number n = 4): 0.817
Array Heatmap signal, ING1 (ING1; sheet "Array Heatmap", GST-tagged ING1, total replicate number n = 4): 0.6486
Array Heatmap signal, ING2 (ING2; sheet "Array Heatmap", GST-tagged ING2, total replicate number n = 4): 0.6326
Array Heatmap signal, ING3 (ING3; sheet "Array Heatmap", GST-tagged ING3, total replicate number n = 4): 0.5651
Array Heatmap signal, ING4 (ING4; sheet "Array Heatmap", GST-tagged ING4, total replicate number n = 4): 0.5513
Array Heatmap signal, ING5 (ING5; sheet "Array Heatmap", GST-tagged ING5, total replicate number n = 4): 0.4351
Array Heatmap signal, KDM4C (TTP) (KDM4C (TTP); sheet "Array Heatmap", GST-tagged KDM4C (TTP), total replicate number n = 4): 0.5685
Array Heatmap signal, KDM5A (1) (KDM5A (1); sheet "Array Heatmap", GST-tagged KDM5A (1), total replicate number n = 4): 0.5239
Array Heatmap signal, KDM5A (3) (KDM5A (3); sheet "Array Heatmap", GST-tagged KDM5A (3), total replicate number n = 4): 0.5465
Array Heatmap signal, KDM5B (1) (KDM5B (1); sheet "Array Heatmap", GST-tagged KDM5B (1), total replicate number n = 4): 0.6945
Array Heatmap signal, KDM5B (3) (KDM5B (3); sheet "Array Heatmap", GST-tagged KDM5B (3), total replicate number n = 4): 0.517
Array Heatmap signal, KDM7A (KDM7A; sheet "Array Heatmap", GST-tagged KDM7A, total replicate number n = 4): 0.4034
Array Heatmap signal, MLL5 (MLL5; sheet "Array Heatmap", GST-tagged MLL5, total replicate number n = 4): 0.6079
Array Heatmap signal, MORC3 (CW) (MORC3 (CW); sheet "Array Heatmap", GST-tagged MORC3 (CW), total replicate number n = 4): 0.4348
Array Heatmap signal, PHF13 (PHF13; sheet "Array Heatmap", GST-tagged PHF13, total replicate number n = 4): 0.7152
Array Heatmap signal, PHF21A (PHF21A; sheet "Array Heatmap", GST-tagged PHF21A, total replicate number n = 4): 0.5243
Array Heatmap signal, PHF23 (PHF23; sheet "Array Heatmap", GST-tagged PHF23, total replicate number n = 4): 0.6261
Array Heatmap signal, PHF2 (PHF2; sheet "Array Heatmap", GST-tagged PHF2, total replicate number n = 4): 0.6756
Array Heatmap signal, PHF8 (PHF8; sheet "Array Heatmap", GST-tagged PHF8, total replicate number n = 4): 0.404
Array Heatmap signal, PHRF1 (RP) (PHRF1 (RP); sheet "Array Heatmap", GST-tagged PHRF1 (RP), total replicate number n = 4): 0.5632
Array Heatmap signal, RAG2 (RAG2; sheet "Array Heatmap", GST-tagged RAG2, total replicate number n = 4): 0.2955
Array Heatmap signal, SP140L (SP140L; sheet "Array Heatmap", GST-tagged SP140L, total replicate number n = 4): 0.4012
Array Heatmap signal, TAF3 (TAF3; sheet "Array Heatmap", GST-tagged TAF3, total replicate number n = 4): 0.3129
Array Heatmap signal, TRIM66 (PB) (TRIM66 (PB); sheet "Array Heatmap", GST-tagged TRIM66 (PB), total replicate number n = 4): 0.6688

Source: paper PMC6979384, “Characterization of the plant homeodomain (PHD) reader family for their histone tail interactions” (Epigenetics & Chromatin, 2020)
